The text below walks through data of patent publication US10966968B2 (Amarin Pharmaceuticals Ireland Limited, priority 2013, dated 2021).

The conditions of series [1]: independent of dose; cited from earlier work.
Series [2] can be described thus: Safety evaluation in the drug-drug interaction study (adverse events, laboratory, vital signs). In kind it is in vivo, human. The settings on record: rosiglitazone 8 mg with ethyl eicosapentaenoate 4 g/day, healthy subjects. From the text: Safety evaluations consisted of monitoring adverse events (AEs), clinical laboratory measurements (chemistry, hematology, and urinalysis), vital signs (systolic and diastolic blood pressure, heart rate, respiratory rate and oral body temperature), and physical examination findings.

A short description of series [3]: Phase 1 open-label crossover drug-drug interaction study: rosiglitazone plasma pharmacokinetics without and with ethyl eicosapentaenoate.
Protocol: Eligibility assessments and clinical laboratory testing were performed within a 28-day screening period. All eligible subjects received the same treatment. […] On days 12-29, subjects received oral doses of 4 g icosapent ethyl (2 liquid-filled 1 g gelatin capsules) twice daily, with or following the morning and evening meals. All study drugs were taken with 240 mL water. Rosiglitazone was administered by study personnel at the research unit, and thus compliance calculations were not necessary. icosapent ethyl was either administered by study personnel during scheduled visits or self-administered by subjects while away from the study site. Compliance to icosapent ethyl (days 12-29) was evaluated by counting and reconciling unused capsules against subject diaries and was calculated as: (used capsules/total dosing days×4)×100.
Doses selected for study were based on established PK profiles of both agents.
Eligible subjects were healthy nonsmoking men and women between the ages of 19 and 55 years with a body mass index >18 and ≤35 kg/m^2 and in good health as determined by medical history and medical examination. Women who were pregnant, nursing, or planning a pregnancy were excluded; female subjects of childbearing potential were required to use an acceptable method of birth control. Subjects were prohibited from ingesting medications and supplements that contained EPA and/or docosahexaenoic acid (DHA), fish meals, foods fortified with EPA and/or DHA, lipid-medications and dietary supplements with known or potential lipid-altering effects including statins, niacin >200 mg/day, fibrates, ezetimibe, and bile acid sequestrants or medications or supplements that may influence the measurements of EPA concentrations in plasma until after the last PK sample collection.
The target in series [4] is T1, CYP2C8 (Homo sapiens, UniProt P10632).
T1 construct: from tissue; host or cells: living healthy human subjects (in vivo; endogenous enzyme)
T1 sequence (P10632 1-490): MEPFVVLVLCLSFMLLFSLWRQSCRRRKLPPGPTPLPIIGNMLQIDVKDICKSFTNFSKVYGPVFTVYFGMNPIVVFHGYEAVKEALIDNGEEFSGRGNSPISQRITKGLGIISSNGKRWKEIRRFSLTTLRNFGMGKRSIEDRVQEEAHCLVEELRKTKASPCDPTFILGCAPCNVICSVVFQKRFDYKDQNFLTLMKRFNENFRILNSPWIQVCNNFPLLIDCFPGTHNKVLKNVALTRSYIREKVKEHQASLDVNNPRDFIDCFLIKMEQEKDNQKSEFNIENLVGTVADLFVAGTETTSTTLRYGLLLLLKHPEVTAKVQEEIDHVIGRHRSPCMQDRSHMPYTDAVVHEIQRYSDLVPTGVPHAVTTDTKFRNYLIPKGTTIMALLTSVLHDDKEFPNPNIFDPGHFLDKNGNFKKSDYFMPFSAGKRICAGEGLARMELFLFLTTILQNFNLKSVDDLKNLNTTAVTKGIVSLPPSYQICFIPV
Nature of the series: Effect of ethyl eicosapentaenoate on metabolism/exposure of rosiglitazone (CYP2C8 substrate) in the drug-drug interaction study. The note with it: at steady state, 4 g/day, healthy subjects. In kind it is in vivo. From the text:
Nonparametric statistics included median and data range (minimum-maximum).

Setting [5] is: both, human, plasma, oral, 8 mg.

Molecules are shown by their SMILES.

As for `CN(CCOc1ccc(CC2SC(=O)NC2=O)cc1)c1ccccn1` (centres unmarked) [Rosiglitazone, rosiglitazone], the elimination half-life in series [1] was 3 to 4 h. Also, the “safety and tolerability of concomitant administration” value in series [2] was “safe and well-tolerated”. In addition, the serious adverse events entry in series [2] is “No serious adverse events”. Further, the Tmax was determined as 48 min in series [3] (both, human, plasma, oral) and 48 min in series [3] (setting [5]). Moreover, the half-life is 246 min in series [3] (both, human, plasma, oral) and 264 min in series [3] (setting [5]). In series [3] (setting [5]), the AUC(0-t) is 3150 ng·h/mL. For the same compound, the Cmax in series [3] (both, human, plasma, oral, 8 mg, Cmax, rosiglitazone 8 mg alone, mean (SD)) is 672 ng/mL; in series [3] (both, human, plasma, oral, 8 mg, LSGM Cmax, rosiglitazone alone, least squares geometric mean from mixed models) it was 647 ng/mL; in series [3] (both, human, plasma, oral, Cmax, rosiglitazone 8 mg with EPA 4 g, mean (SD)) it was 673 ng/mL; in series [3] (both, human, plasma, oral, LSGM Cmax, rosiglitazone + EPA, least squares geometric mean from mixed models) it was 650 ng/mL. Besides, the AUC(0-inf) was determined as 3150 ng·h/mL in series [3] (both, human, plasma, oral, 8 mg, LSGM AUC0-inf, rosiglitazone alone, least squares geometric mean from mixed models); 2920 ng·h/mL in series [3] (both, human, plasma, oral, AUC0-inf, rosiglitazone 8 mg with EPA 4 g (day 29), healthy subjects, plasma, mean (SD)); 2840 ng·h/mL in series [3] (both, human, plasma, oral, LSGM AUC0-inf, rosiglitazone + EPA, least squares geometric mean from mixed models); 3230 ng·h/mL in series [3] (both, human, plasma, po, 8 mg, AUC0-inf, rosiglitazone 8 mg single oral dose alone (day 11), healthy subjects, plasma, mean (SD)). For the same compound, the Kel in series [3] (rosiglitazone 8 mg alone, mean (SD)) is listed as 0.16 (0.02) 1/h; in series [3] (rosiglitazone 8 mg with EPA 4 g, mean (SD)), 0.17 (0.03) 1/h. Further, in series [3] (rosiglitazone 8 mg, ethyl eicosapentaenoate 4 g/day), the “difference in AUC0-inf and Cmax, alone compared to co-administration with ethyl eicosapentaenoate” value was “no significant difference”.

Take `CC/C=C\C/C=C\C/C=C\C/C=C\C/C=C\CCCC(=O)OCC` [ethyl eicosapentaenoate, all-cis eicosa-5,8,11,14,17-pentaenoic acid ethyl ester]: in series [2], the “safety and tolerability of concomitant administration” value is “safe and well-tolerated”; the serious adverse events entry is “No serious adverse events”. Further, in series [4], the “exposure changes of rosiglitazone when administered concomitantly” value is “no clinically relevant exposure changes” and the “inhibition of the metabolism of rosiglitazone” value is “does not inhibit”.
